From EP2730577A1, “CRYSTAL MODIFICATION OF A PARA-METHOXYANILIDE OF 6-HYDROXY-4-OXO-2,4,DIHYDRO-1H-PYRROLO[3,2,1-IJ]-QUINOLINE-5-CARBOXYLIC ACID” (Otkrytoe Aktsionernoe Obschestvo Mezhdunarodnaya, priority 2012, dated 2013)

Assays:
white rats [1] = assay: Diuretic effect (urinary excretion) in rats after oral administration; format: in vivo; settings: for Diuresis after 5 hr.: 10 mg/kg orally as a fine suspension in water stabilized with Tween-80, after water load, urine excreted over 5 hrs, control 4.3 ± 0.20 ml, 10 mg/kg; for Diuretic effect: 5 hr, relative to control = 100, 10 mg/kg
Method: Example 6. Diuretic effect of the novel crystal modification (β-form) of 6-hydroxy-4-oxo-2,4-dihydro-1H-pyrrolo[3,2,1-ij]-quinoline-5-carboxylic acid para-metoxyanilide compared to the effect of the known crystal modification (α-form) of the same compound was studied on white rats weighing 180 - 200 g
(12 animals per each compound) using a standard technique. All tested animals received water via a gastric tube at 5 ml per […] of body weight. The control group received the same amount of water with Tween 80. The tested substances were administered orally at 10 mg/kg (median effective dose of the known α-form) as a fine suspension in water stabilized with Tween-80. After that, the tested animals were placed into "exchange cages". The urinary excretion intensity was determined by the amount of urine excreted by the animals over a period of 5 hrs. The experimental data shown in Table 9 leads to a conclusion that the diuretic action of the novel crystal modification (β-form) of 6-hydroxy-4-oxo-2,4-dihydro-1H-pyrrolo[3,2,1-ij]-quinoline-5-carboxylic acid para-metoxyanilide exceeds that of the known α-form by an average of 19%.

white rats [2] = settings: diuretic effect, oral; stated for the known α-form without data of its own; cited from earlier work

Compound | Diuresis after 5 hr. (white rats [1]) | Diuretic effect (white rats [1]; 10 mg/kg orally) | median effective dose (white rats [2]) | diuretic action exceeds that of the known α-form (white rats [1]; 10 mg/kg orally, 5 hrs, β-form versus α-form, average)
COc1ccc(NC(=O)c2c(O)c3cccc4c3n(c2=O)CC4)cc1 [Known α-form, 6-hydroxy-4-oxo-2,4-dihydro-1H-pyrrolo[3,2,1-ij]-quinoline-5-carboxylic acid para-metoxyanilide] | 9.7 ± 0.28 mL | 226% | 10 mg/kg | –
COc1ccc(NC(=O)c2c(O)c3cccc4c3n(c2=O)CC4)cc1 [Novel β-form, 6-hydroxy-4-oxo-2,4-dihydro-1H-pyrrolo[3,2,1-ij]-quinoline-5-carboxylic acid para-metoxyanilide] | 10.5 ± 0.27 mL | 245% | – | 19%
